The target in one assay is T1, LXRβ full length (FL) (Homo sapiens, UniProt P55055, DUP175-175).
T1 construct: the full length (FL) proteins of LXRα (amino acids 1-447); NP005684; NP009052; expressed in transfected cells; host or cells: HEK293
T1 sequence (P55055 with tags, fused parts or gaps DUP175-175): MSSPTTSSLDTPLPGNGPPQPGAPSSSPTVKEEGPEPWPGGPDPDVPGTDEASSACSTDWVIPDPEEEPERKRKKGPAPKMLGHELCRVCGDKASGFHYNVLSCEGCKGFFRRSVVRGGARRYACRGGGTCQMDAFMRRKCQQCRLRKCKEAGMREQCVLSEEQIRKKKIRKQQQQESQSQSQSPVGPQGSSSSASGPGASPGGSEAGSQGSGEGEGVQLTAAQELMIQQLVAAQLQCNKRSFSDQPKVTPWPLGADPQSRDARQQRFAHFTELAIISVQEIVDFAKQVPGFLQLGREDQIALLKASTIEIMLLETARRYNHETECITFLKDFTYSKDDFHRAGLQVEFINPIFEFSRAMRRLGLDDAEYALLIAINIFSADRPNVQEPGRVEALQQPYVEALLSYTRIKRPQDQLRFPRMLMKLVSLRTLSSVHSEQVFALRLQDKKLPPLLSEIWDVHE
Nature of the assay: LXR Gal4 reporter transient transfection assay (M2H), Gal4β FL. The conditions noted are these: HEK293 cells; read-out: M2H Gal4β FL activity range (EC50). The assay is classed as cell-based. The protocol: (§1) The tested compounds were usually dissolved, tested and stored as 20 mM stock solutions in DMSO. Since sulfonyl acetic acid derivatives tend to decarboxylate under these conditions, these stock solutions were prepared, tested and stored as 20 mM DMSO stock solutions containing 100 mM trifluoroacetic acid (5 equivalents). Sulfonyl acetic acid derivatives are shelf stable as solid at rt for long time as reported by Griesbrecht et al. (Synlett 2010:374) or Faucher et al. (J. Med. Chem. 2004; 47:18).
(§2) LXR Gal4 Reporter Transient Transfection Assays
(§3) LXRα and LXRβ activity status was determined via detection of interaction with coactivator and corepressor proteins in mammalian two-hybrid experiments (M2H). For this, via transient transfection the full length (FL) proteins of LXRα (amino acids 1-447; NP005684; SEQ ID NO:7) or LXRβ-(amino acids 1-461; NP009052; SEQ ID NO:8) or the ligand-binding domains (LBD) of LXRα (amino acids 155-447 SEQ ID NO:3) or LXRβ (amino acids 156-461; SEQ ID NO:4) were expressed from pCMV-AD (Stratagene) as fusions to the transcriptional activation domain of NFkB. As cofactors, domains of either the steroid receptor coactivator 1 (SRC1; amino acids 552-887; SEQ ID NO:5) or of the corepressor NCoR (amino acids 1903-2312 SEQ ID NO:6) were expressed as fusions to the DNA binding domain of the yeast transcription factor GAL4 (from pCMV-BD; Stratagene). Interaction was monitored via activation of a coexpressed Firefly Luciferase Reporter gene under control of a promoter containing repetitive GAL4 response elements (vector pFRLuc; Stratagene). Transfection efficiency was controlled via cotransfection of constitutively active pRL-CMV Renilla reniformis luciferase reporter (Promega). HEK293 cells were grown in minimum essential medium (MEM) with 2 mM L-glutamine and Earle's balanced salt solution supplemented with 8.3% fetal bovine serum, 0.1 mM non-essential amino acids, 1 mM sodium pyruvate, at 37° C. in 5% CO2. 3.5×10^4 cells/well were plated in 96-well cell culture plates in growth medium supplemented with 8.3% fetal bovine serum for 16-20 h to ˜90% confluency. For transfection, medium was taken off and LXR and cofactor expressing plasmids as well as the reporter plasmids are added in 30 μL OPTIMEM/well including polyethylene-imine (PEI) as vehicle. Typical amounts of plasmids transfected/well: pCMV-AD-LXR (5 ng), pCMV-BD-cofactor (5 ng), pFR-Luc (100 ng), pRL-CMV (0.5 ng). Compound stocks were prepared in DMSO, prediluted in MEM to a total volume of 120 μL, and added 4 h after addition of the transfection mixture (final vehicle concentration not exceeding 0.2%). Cells were incubated for additional 16 h, lysed for 10 min in 1× Passive Lysis Buffer (Promega) and Firefly and Renilla luciferase activities were measured sequentially in the same cell extract using buffers containing D-luciferine and coelenterazine, respectively. Measurements of luminescence were done in a BMG-Iuminometer.

For assay [1], the target named is T2, GST-LXRβ ligand-binding domain (Homo sapiens, UniProt P55055, DUP175-175).
T2 construct: amino acids 156-461; NP009052; made in house; host or cells: E. coli
T2 sequence (P55055 with tags, fused parts or gaps DUP175-175): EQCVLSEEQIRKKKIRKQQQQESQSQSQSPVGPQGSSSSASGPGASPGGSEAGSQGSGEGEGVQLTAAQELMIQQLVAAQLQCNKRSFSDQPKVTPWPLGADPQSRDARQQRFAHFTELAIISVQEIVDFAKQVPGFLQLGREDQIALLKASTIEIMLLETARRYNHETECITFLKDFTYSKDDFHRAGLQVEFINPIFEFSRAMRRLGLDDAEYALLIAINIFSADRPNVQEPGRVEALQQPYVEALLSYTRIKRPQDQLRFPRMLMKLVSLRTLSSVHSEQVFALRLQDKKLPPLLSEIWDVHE
The assay is described as follows: TR-FRETβ activity assay (LXRβ-LBD / NCoA3 coactivator peptide, prestimulated with 24(S)-25-epoxycholesterol). The assay is classed as biochemical. Also noted: key to behavior in FRET assay: ag=agonist; ia=inverse agonist. The conditions noted are these: for EC50: read-out: FRETβ activity range (EC50); for behavior in FRET assay: agonist or inverse agonist. The protocol:
The tested compounds were usually dissolved, tested and stored as 20 mM stock solutions in DMSO. […] Sulfonyl acetic acid derivatives are shelf stable as solid at rt for long time as reported by Griesbrecht et al. (Synlett 2010:374) or Faucher et al. (J. Med. Chem. 2004; 47:18). TR-FRETβ Activity Assay Recombinant GST-LXRβ ligand-binding domain (LBD; amino acids 156-461; NP009052; SEQ ID NO:2) was expressed in E. coli and purified via gluthatione-sepharose affinity chromatography. N-terminally biotinylated NCoA3 coactivator peptide (SEQ ID NO:1) was chemically synthesized (Eurogentec). […] Finally, a detection mix was added containing anti GST-Tb cryptate (CisBio; 610SAXLB) and Streptavidin-XL665 (CisBio; 610SAXLB) as fluorescent donor and acceptor, respectively, as well as the coactivator peptide and LXRβ-LBD protein (SEQ ID NO:2). The reaction was mixed thoroughly, equilibrated for 1 h at 4° C. and vicinity of LXRβ and coactivator peptide was detected by measurement of fluorescence in a VictorX4 multiplate reader (PerkinElmer Life Science) using 340 nm as excitation and 615 and 665 nm as emission wavelengths. Assays were performed in triplicates. Final Assay Concentrations of Components: 240 mM KCl, 1 μg/μL BSA, 0.002% Triton-X-100, […] anti GST-Tb cryptate, 2.5 ng/μL Streptavidin-XL665, coactivator peptide (400 nM), LXRβ protein ([…], i.e. 76 nM)

In another assay the target is T3, LXRα full length (FL) (Homo sapiens, UniProt Q13133).
T3 construct: the full length (FL) proteins of LXRα (amino acids 1-447); NP005684; expressed in transfected cells; host or cells: HEK293
T3 sequence (Q13133 1-447): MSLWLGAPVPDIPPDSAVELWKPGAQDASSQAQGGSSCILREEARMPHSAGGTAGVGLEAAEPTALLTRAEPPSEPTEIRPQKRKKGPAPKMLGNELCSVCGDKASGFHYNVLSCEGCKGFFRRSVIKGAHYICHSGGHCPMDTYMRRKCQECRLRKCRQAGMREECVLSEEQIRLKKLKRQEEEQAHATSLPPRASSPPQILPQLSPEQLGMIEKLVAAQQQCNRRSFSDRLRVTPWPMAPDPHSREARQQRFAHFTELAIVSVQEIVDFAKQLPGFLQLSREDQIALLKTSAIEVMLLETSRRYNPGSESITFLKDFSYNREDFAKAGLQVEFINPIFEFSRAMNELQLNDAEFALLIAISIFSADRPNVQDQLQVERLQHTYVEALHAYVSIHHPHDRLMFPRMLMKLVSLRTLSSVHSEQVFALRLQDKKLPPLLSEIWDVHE
Nature of the assay: LXR Gal4 reporter transient transfection assay (M2H), Gal4α FL. The assay is classed as cell-based. Conditions: HEK293 cells; for EC50: read-out: M2H Gal4α FL activity range (EC50). The protocol: as §1, §2, §3

The mark [2] stands for this setting: 1 μM 24(S)-25-epoxycholesterol as prestimulating agonist.

The structures appear in SMILES notation. A value given as a limit tells only on which side of the number the result lay.

Broadly, the EC50 is the concentration giving half of the maximal effect. On to `Cc1cc(C)c(S(=O)(=O)N(Cc2ccc(-c3cccc(S(=O)(=O)CC(=O)O)c3)cc2)Cc2cccc(Cl)c2)c(C)c1` [11/16], for which the values for the EC50 at LXRβ full length (FL) and on LXRα full length (FL) were 0.1 to 1 µM and 1 to 10 µM, respectively. For the same molecule, the “FRETβ activity range (EC50)” value in assay [1] (setting [2]) is “inactive”.

Take `Cc1cccc(C)c1S(=O)(=O)N(Cc1ccc(-c2cccc(S(=O)(=O)CC(=O)O)c2)cc1)Cc1ccc(C(F)(F)F)o1` [14/2]: the EC50 at LXRβ full length (FL) lay in the range of 0.1 to 1 µM; in assay [1] (setting [2]), 1 to 10 µM; on LXRα full length (FL) it was 1 to 10 µM. In assay [1], the “behavior in FRET assay” value was “ia”.

Consider `Cc1ccc2ccccc2c1S(=O)(=O)N(Cc1ccc(-c2cccc(C(C)(C)C(=O)O)c2)cc1)C1CCc2ccc(C(F)(F)F)cc21` (stereo not shown) [17/2], for which the half-maximal effective concentration (EC50) is less than 0.1 µM at LXRβ full length (FL), 0.1 to 1 µM in assay [1] (setting [2]) and less than 0.1 µM at LXRα full length (FL). The “behavior in FRET assay” value in assay [1] is recorded as “ia”.

For `Cc1cc(C(F)(F)F)oc1CN(Cc1ccc(-c2cccc(C(C)(C)C(=O)O)c2)cc1)S(=O)(=O)c1c(C)ccc2ccccc12` [17/3], the EC50 (at LXRβ full length (FL); in assay [1] (setting [2]); at LXRα full length (FL)) was less than 0.1 µM throughout. The “behavior in FRET assay” value in assay [1] is “ia”.

Consider `Cc1cc(C)c(S(=O)(=O)N(Cc2ccc(-c3cccc(S(=O)(=O)C(C)C(=O)O)c3)cc2)Cc2ccc(C(F)(F)F)o2)c(C)c1` (stereo not shown) [Example 5/1], for which the EC50 on LXRβ full length (FL) fell in the range of 0.1 to 1 µM; in assay [1] (setting [2]) it was 1 to 10 µM; on LXRα full length (FL), 0.1 to 1 µM. Moreover, in assay [1], the “behavior in FRET assay” value is “ia”.

On to `Cc1ccc2ccccc2c1S(=O)(=O)N(Cc1ccc(-c2cccc(S(=O)(=O)CC(=O)O)c2)cc1)Cc1ccc(C#N)o1` [Example 5/7], for which the EC50 fell in the range of 0.1 to 1 µM on LXRβ full length (FL), 1 to 10 µM in assay [1] (setting [2]) and 0.1 to 1 µM at LXRα full length (FL). Besides, the “behavior in FRET assay” value in assay [1] is recorded as “ia”.

For `Cc1cc(C)c(S(=O)(=O)N(Cc2ccc(-c3cc(F)c(CO)c(S(=O)(=O)CC(=O)O)c3)cc2)Cc2ccc(C(F)(F)F)o2)c(C)c1` [Example 9, 2-((5-Fluoro-4-(hydroxymethyl)-4′-(((2,4,6-trimethyl-N-((5-(trifluoromethyl)furan-2-yl)methyl)phenyl)sulfonamido)methyl)-[1,1′-biphenyl]-3-yl)sulfonyl)acetic acid], the 50% effective concentration (EC50) on LXRβ full length (FL) fell in the range of 0.1 to 1 µM; in assay [1] (setting [2]), 1 to 10 µM; on LXRα full length (FL), 0.1 to 1 µM. Further, the “behavior in FRET assay” value in assay [1] is given as “ia”.

As to `Cc1ccc2ccccc2c1S(=O)(=O)N(Cc1ccc(-c2cccc(S(=O)(=O)CC(=O)O)c2)cc1)Cc1ccc(C(F)(F)F)o1` [Example 10, 2-((4′-(((2-Methyl-N-((5-(trifluoromethyl)furan-2-yl)methyl)naphthalene)-1-sulfonamido)methyl)[1,1′-biphenyl]-3-yl)sulfonyl)acetic acid], the EC50 (at LXRβ full length (FL); in assay [1] (setting [2]); on LXRα full length (FL)) was 0.1 to 1 µM throughout. Also, the “behavior in FRET assay” value in assay [1] is reported as “ia”.

Consider `O=C(O)CS(=O)(=O)c1cccc(-c2ccc(CN(Cc3ccc(C(F)(F)F)o3)S(=O)(=O)c3c(Cl)cccc3Cl)cc2)c1` [Example 10/1], for which the EC50 fell in the range of 0.1 to 1 µM on LXRβ full length (FL) and 1 to 10 µM in assay [1] (setting [2]). The “behavior in FRET assay” value in assay [1] was “ag”. Also, at LXRα full length (FL), the “M2H Gal4α FL activity range (EC50)” value was “inactive”.

With `Cc1cc(C)c(S(=O)(=O)N(Cc2ccc(-c3cccc(S(=O)(=O)CC(=O)O)c3)cc2)Cc2cccc(C(F)(F)F)c2)c(C)c1` [Example 11, 2-((4′-(((2,4,6-Trimethyl-N-(3-(trifluoromethyl)benzyl)phenyl)sulfonamido)methyl)-[1,1′-biphenyl]-3-yl)sulfonyl)acetic acid], the 50% effective concentration (EC50) (on LXRβ full length (FL); in assay [1] (setting [2]); on LXRα full length (FL)) was 1 to 10 µM in each case. Also, the “behavior in FRET assay” value in assay [1] is “ia”.

As for `Cc1cc(F)c(S(=O)(=O)N(Cc2ccc(-c3cccc(S(=O)(=O)CC(=O)O)c3)cc2)Cc2ccc(C(F)(F)F)o2)c(F)c1` [Example 14/1], the 50% effective concentration (EC50) (at LXRβ full length (FL); in assay [1] (setting [2])) was 1 to 10 µM each time. The “behavior in FRET assay” value in assay [1] was “ag”. Moreover, the “M2H Gal4α FL activity range (EC50)” value on LXRα full length (FL) was “inactive”.

In the case of `Cc1cc(C)c(S(=O)(=O)N(Cc2ccc(-c3cccc(S(=O)(=O)CC(=O)O)c3)cc2)C(C)(C)c2ccc(C(F)(F)F)o2)c(C)c1` [Example 17, 2-((4′-(((2,4,6-Trimethyl-N-(2-(5-(trifluoromethyl)furan-2-yl)propan-2-yl)phenyl)sulfon-amido)methyl)-[1,1′-biphenyl]-3-yl)sulfonyl)acetic acid], the EC50 (at LXRβ full length (FL); in assay [1] (setting [2]); at LXRα full length (FL)) was 1 to 10 µM in each case.

Values taken from patent US20200115357A1, “LIVER X RECEPTORS (LXR) MODULATORS” (Phenex-FXR GmbH, priority 2017, published 2020).
